# Reference: patent EP4603105A1, “PHARMACEUTICAL COMPOSITION CONTAINING CYCLIC COMPOUND HAVING SELECTIVE KRAS INHIBITORY EFFECT AGAINST HRAS AND NRAS” (CHUGAI SEIYAKU KABUSHIKI KAISHA, priority 2022, dated 2024)
# Where a SMILES comes first, the peptide text is derived from it. Bridges are numbered along the chain shown (N, C = ends). [ ]: non-standard residue; d: D form. The star is where a group is joined. hPhe(3-Cl-4-CF3) = N[C@@H](CCc1ccc(C(F)(F)F)c(Cl)c1)C(=O)O; NPrPhe(4-CF3) = CCCN[C@@H](Cc1ccc(C(F)(F)F)cc1)C(=O)O; Abu(4,4,4-F3) = N[C@@H](CC(F)(F)F)C(=O)O; NMeGly(cPent) = CN[C@H](C(=O)O)C1CCCC1; NMeD = CN[C@@H](CC(=O)O)C(=O)O; NMeL = CN[C@@H](CC(C)C)C(=O)O; Pip = O=C(O)[C@@H]1CCCCN1; Ac6c = NC1(C(=O)O)CCCCC1; Morpholide = C1CN(*)CCO1; NMeA = CN[C@@H](C)C(=O)O; Ac5c = NC1(C(=O)O)CCCC1; Aze = O=C(O)[C@@H]1CCN1; Sar = CNCC(=O)O
# How the values were obtained:
# [1] = biological target: GDP-bound NRAS wild-type protein (Homo sapiens, UniProt P01111); experiment: Binding to NRAS by surface plasmon resonance (SPR), KD and KD ratio to KRAS
# How it was run: (§1)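 GDP-bound biotin-Avi RAS captured at ~100–300 RU, 30°C, pH 7.4 HBS containing 10 µM GDP, 10 mM MgCl2, 1 mM DTT, 0.01% Tween 20 and 4% DMSO. KD by 1:1 fitting.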
# HRAS wild-type protein = HRAS wild-type protein (Homo sapiens, UniProt P01112); experiment: Binding to HRAS by surface plasmon resonance (SPR), KD and KD ratio to KRAS
# How it was run: as §1
# [2] = system: human lung cancer strain NCI-H441; assay type: cell-based
# How it was run: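 Readout: […] after the ATP-based reagent. Compound: serial dilutions in dimethyl sulfoxide.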
# [3] = ratio of KD for GDP-bound NRAS wild-type protein to KD for KRAS
# [4] = ratio of KD for HRAS wild-type protein to KD for KRAS
# [5] = ratio of the KD value with respect to GDP-bound NRAS wild-type protein to the KD value with respect to KRAS
# [6] = ratio of the KD value with respect to HRAS wild-type protein to the KD value with respect to KRAS
# GDP-bound NRAS wild-type protein, sequence (P01111 whole entry): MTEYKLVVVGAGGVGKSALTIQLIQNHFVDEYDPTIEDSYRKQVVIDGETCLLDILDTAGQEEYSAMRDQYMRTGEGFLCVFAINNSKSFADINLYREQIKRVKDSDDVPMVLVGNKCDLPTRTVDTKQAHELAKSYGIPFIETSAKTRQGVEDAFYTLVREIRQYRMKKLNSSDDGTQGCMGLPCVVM
# HRAS wild-type protein, sequence (P01112 whole entry): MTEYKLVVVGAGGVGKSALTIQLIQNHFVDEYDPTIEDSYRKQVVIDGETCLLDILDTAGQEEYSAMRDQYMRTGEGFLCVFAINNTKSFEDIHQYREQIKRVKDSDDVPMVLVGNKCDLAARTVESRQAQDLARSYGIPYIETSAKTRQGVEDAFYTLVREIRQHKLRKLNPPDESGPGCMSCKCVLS
SMILES,"NRAS /KRAS [1, 3]",HRAS /KRAS (HRAS wild-type protein; [4]),IC50 [2] [nM],"NRAS /KRAS [1, 5]",HRAS /KRAS (HRAS wild-type protein; [6]),NRAS /KRAS ([1]; ratio of KD with respect to GDP-bound NRAS wild-type protein to KD with respect to KRAS),HRAS /KRAS (HRAS wild-type protein; ratio of KD with respect to HRAS wild-type protein to KD with respect to KRAS)
CCCN1C(=O)CN(C)C(=O)[C@@H]2CCN2C(=O)[C@H]([C@@H](C)CC)NC(=O)[C@H](CC(C)C)N(C)C(=O)C[C@@H](C(=O)N2CCOCC2)N(C)C(=O)[C@H](C2CCCC2)N(C)C(=O)C2(CCCC2)NC(=O)[C@@H]2CCCCN2C(=O)[C@H](CCc2ccc(C(F)(F)F)c(Cl)c2)NC(=O)CN(C)C(=O)[C@@H]1Cc1ccc(C(F)(F)F)cc1 [PP0311] ([NMeL]I[Aze][Sar][NPrPhe(4-CF3)][Sar][hPhe(3-Cl-4-CF3)][Pip][Ac5c][NMeGly(cPent)][NMeD]-Morpholide; lactam N-11),B (a compound having 3 or more and less than 10 is denoted as B),B (a compound having 3 or more and less than 10 is denoted as B),147,–,–,–,–
"CCCN1C(=O)CN(C)C(=O)CN(C)C(=O)[C@H](CC(F)(F)F)NC(=O)[C@H](CC(C)C)N(C)C(=O)C[C@@H](C(=O)N2CCOCC2)N(C)C(=O)[C@H](C2CCCC2)N(C)C(=O)C2(CCCC2)NC(=O)[C@@H]2CCCN2C(=O)[C@H](CCc2ccc(C(F)(F)F)c(Cl)c2)NC(=O)CN(C)C(=O)[C@@H]1Cc1ccc(C(F)(F)F)cc1 [PP0249] ([NMeL][Abu(4,4,4-F3)][Sar][Sar][NPrPhe(4-CF3)][Sar][hPhe(3-Cl-4-CF3)]P[Ac5c][NMeGly(cPent)][NMeD]-Morpholide; lactam N-11)",B (a compound having 3 or more and less than 10 is denoted as B),C (A compound having a KD ratio of 0.1 or more and less than 3 is denoted as C),25.5,–,–,–,–
CCO[C@@H]1C[C@H]2C(=O)NC3(CCC3)C(=O)N(C)[C@@H](C3CCCC3)C(=O)N(CC)[C@H](C(=O)N3CCOCC3)CC(=O)N(C)[C@@H](CCOC)C(=O)N[C@@H]([C@@H](C)CC)C(=O)N(C)CC(=O)N(C)[C@H]3CCCCCN(C3=O)[C@@H](Cc3ccc(C(F)(F)F)cc3)C(=O)N(C)CC(=O)N[C@@H](CCc3cc(F)c(C(F)(F)F)c(F)c3)C(=O)N2C1 [PP0947],A (a compound having 10 or more and less than 20 is denoted as A),A (a compound having 10 or more and less than 20 is denoted as A),597,–,–,–,–
CC[C@H](C)[C@@H]1NC(=O)[C@H](CC(C)C)N(C)C(=O)C[C@@H](C(=O)N2CCOCC2)NC(=O)[C@H](C2CCCC2)N(C)C(=O)C2(CCCC2)NC(=O)[C@@H]2CCCN2C(=O)[C@H](CCc2cc(F)c(C(F)(F)F)c(F)c2)NC(=O)CN(C)C(=O)[C@H](Cc2ccc(C(F)(F)F)cc2)N2CCCCC[C@@H](C2=O)N(C)C(=O)CN(C)C1=O [PP0479],–,–,2440,B (a compound having 3 or more and less than 10 is denoted as B),B (a compound having 3 or more and less than 10 is denoted as B),–,–
CCC[C@H]1C(=O)N[C@@H]([C@@H](C)CC)C(=O)N(C2CC2)CC(=O)N(C)[C@H]2C/C=C\CCN(C2=O)[C@@H](Cc2ccc(C)cc2)C(=O)N(C)CC(=O)N[C@@H](CCc2cc(C)c(C(F)F)c(F)c2)C(=O)N2C[C@H](OCC)C[C@H]2C(=O)NC2(CC(C)(C)C2)C(=O)N(C)[C@@H](C2CCCC2)C(=O)N(C)[C@H](C(=O)N(C)C)CC(=O)N1C [PP2874],A (a compound having 10 or more and less than 20 is denoted as A),A (a compound having 10 or more and less than 20 is denoted as A),44,–,–,–,–
CCCN1C(=O)[C@@H]2CCN2C(=O)[C@H](C)N(C)C(=O)[C@H]([C@@H](C)CC)NC(=O)[C@H](CC(C)C)N(C)C(=O)C[C@@H](C(=O)N2CCOCC2)N(C)C(=O)[C@H](C2CCCC2)N(C)C(=O)C2(CCCCC2)NC(=O)[C@@H]2CCCN2C(=O)[C@H](CCc2ccc(C(F)(F)F)c(Cl)c2)NC(=O)CN(C)C(=O)[C@@H]1Cc1ccc(C(F)(F)F)cc1 [PP0226] ([NMeL]I[NMeA][Aze][NPrPhe(4-CF3)][Sar][hPhe(3-Cl-4-CF3)]P[Ac6c][NMeGly(cPent)][NMeD]-Morpholide; lactam N-11),C (A compound having a KD ratio of 0.1 or more and less than 3 is denoted as C),B (a compound having 3 or more and less than 10 is denoted as B),15.3,–,–,–,–
CCC[C@H]1C(=O)N[C@@H]([C@@H](C)CC)C(=O)N(C)CC(=O)N(C)[C@H]2C/C=C\CCN(C2=O)[C@@H](Cc2ccc(C(F)(F)F)cc2)C(=O)N(C)CC(=O)N[C@@H](CCc2ccc(C(F)(F)F)c(Cl)c2)C(=O)N2C[C@H](OCC)C[C@H]2C(=O)NC2(CC(C)(C)C2)C(=O)N(C)[C@@H](CC(C)(C)C)C(=O)N(C)[C@H](C(=O)N(C)C)CC(=O)N1C [PP2969],AA (a compound having 20 or more is denoted as AA),A (a compound having 10 or more and less than 20 is denoted as A),2.7,–,–,–,–
C#CC[C@H]1C(=O)N[C@@H]([C@@H](C)CC)C(=O)N(C)CC(=O)N(C)[C@H]2C/C=C\CCN(C2=O)[C@@H](Cc2ccc(C(F)(F)F)cc2)C(=O)N(C)CC(=O)N[C@@H](CCc2ccc(Cl)c(Cl)c2)C(=O)N2C[C@H](OCC)C[C@H]2C(=O)NC2(CC(C)(C)C2)C(=O)N(C)[C@@H](C2CCCC2)C(=O)N(C)[C@H](C(=O)N(C)CC)CC(=O)N1C [PP2843],A (a compound having 10 or more and less than 20 is denoted as A),A (a compound having 10 or more and less than 20 is denoted as A),17.7,–,–,–,–
CCO[C@@H]1C[C@H]2C(=O)NC3(CCC3)C(=O)N(C)[C@@H](C3CCCC3)C(=O)N(C)[C@H](C(=O)N(CC)CC)CC(=O)N(C)[C@@H](C)C(=O)N[C@@H]([C@@H](C)CC)C(=O)N(C)CC(=O)N(C)[C@H]3C/C=C\CCN(C3=O)[C@@H](Cc3ccc(C(F)(F)F)cc3)C(=O)N(C)CC(=O)N[C@@H](CCc3cc(F)c(C(F)(F)F)c(F)c3)C(=O)N2C1 [PP1308],–,–,10.9,–,–,A (a compound having 10 or more and less than 20 is denoted as A),A (a compound having 10 or more and less than 20 is denoted as A)
CCO[C@@H]1C[C@H]2C(=O)NC3(CCC3)C(=O)N(C)[C@@H](C3CCCC3)C(=O)N(CC)[C@H](C(=O)N(C)C)CC(=O)N(C)[C@@H](CC)C(=O)N[C@@H]([C@@H](C)CC)C(=O)N(C)CC(=O)N(C)[C@H]3CCCCN(C3=O)[C@@H](Cc3ccc(C(F)(F)F)cc3)C(=O)N(C)CC(=O)N[C@@H](CCc3cc(F)c(C(F)(F)F)c(F)c3)C(=O)N2C1 [PP0643],–,–,6.5,C (A compound having a KD ratio of 0.1 or more and less than 3 is denoted as C),B (a compound having 3 or more and less than 10 is denoted as B),–,–
CCCO[C@@H]1C[C@H]2C(=O)NC3(CC(C)(C)C3)C(=O)N(C)[C@@H](C(CC)CC)C(=O)N(C)[C@H](C(=O)N(C)C)CC(=O)N(C)[C@H]3CCCCc4ccc(cc4)C[C@@H](C(=O)N(C)CC(=O)N[C@@H](CCc4ccc(C(F)(F)F)c(OC)c4)C(=O)N2C1)N1CC/C=C\C[C@@H](C1=O)N(C)C(=O)CN(C)C(=O)[C@H]([C@@H](C)CC)NC3=O [PP3038],A (a compound having 10 or more and less than 20 is denoted as A),A (a compound having 10 or more and less than 20 is denoted as A),3.1,–,–,–,–
